Reference: patent publication US11472862B2, “IL13Rα2 peptide and its uses” (priority 2017, dated 2022)
Non-standard residues stand in square brackets, D forms with d. No end group written: not given here.

What was measured:
[1] = system: KM12SM cells; test: Cell adhesion assay to Matrigel; format: cell-based, human; settings: with IL-13, peptide 1 μg/ml
Experimental: (§1) Recombinant human IL13 was used at […] (13) and was purchased from PeproTech. IL13Rα2-derived peptides (IL13Rα2D1: GSETWKTIITKN, SEQ ID NO: 3; IL13Rα2D1S: WKTIITKN, SEQ ID NO: 1; IL13Rα2Nter: FEIVDPGY, SEQ ID NO: 14; IL13Rα2Cter WSIPLGPI, SEQ ID NO: 15; IL13Rα2D1S-1A: WATIITKN, SEQ ID NO: 16; IL13Rα2D1S-2A WKAIITKN, SEQ ID NO: 17; IL13Rα2D1S-3A WKTAITKN, SEQ ID NO: 18; IL13Rα2D1S-4A WKTIATKN, SEQ ID NO: 19; IL13Rα2D1S-5A WKTIIAKN, SEQ ID NO: 20; IL13Rα2D1S-6A WKTIITAN, SEQ ID NO: 21) were synthesized using solid phase chemistry with a Focus XC instrument (AAPPtec). The enantio version D-IL13Rα2D1 (D-D1) peptide (GSETWKTIITKN, SEQ ID NO: 3) composed entirely by D-amino acids was purchased from Proteogenix (Schiltigheim, France). […]
(§2) Binding of D1 peptide to IL-13 was monitored by surface plasmon resonance on a BIAcore 3000 instrument (BIAcore Inc, Switzerland). […] The interaction between D1 peptide and the immobilized IL13 was determined by changes in the RU at different D1 concentrations. […] Cell proliferation was determined by absorbance at 560 nm and comparison with control cells collected ab initium. […] Bound cells were lysed with 1% SDS in PBS, and the extent of the adhesion was quantified using a fluorescence analyzer (POLARstar Galaxy, BMG Labtechnologies). […] Effective migration speed was calculated from the distance covered by cells in 24 h in each side of the wound. […]

[2] = system: U251 glioblastoma xenografts; test: Glioblastoma xenograft tumour growth; format: in vivo, mice; settings: 3 μg/100 μL PBS subcutaneously, 7 doses during 15 days, start at 100 mm^3; p<0.01 vs control
Experimental: (§3) FIG. 6. D1 and D-D1 peptides increase the survival of mice inoculated with metastatic tumor cells and inhibits glioblastoma xenografts. (A) Liver homing experiment. Metastatic KM12SM cells were treated with the IL13 and/or D1 peptide and inoculated in spleen of nude mice. […] (C) 10^7 U251 cells were inoculated subcutaneously into the flanks of mice. Eleven days after cell inoculation, when tumours reached a size of 100 mm^3, mice were treated with D-D1 peptide (3 μg/100 μL of PBS) subcutaneously or with saline solution in a total of 7 doses during 15 days. Tumours were measured every 2-3 days. **p<0.01 vs control.
Additionally, the capacity of the D-D1 peptide to inhibit tumour growth in U251 glioblastoma xenografts was tested. For glioblastoma xenografts, 10^7 U251 cells were inoculated subcutaneously into the flanks of mice. Eleven days after cell inoculation, when tumours reached a size of 100 mm^3, mice were treated with D-D1 peptide (3 μg/100 μL of PBS) subcutaneously or with saline solution in a total of 7 doses during 15 days. Tumours were measured every 2-3 days.

[3] = system: KM12SM cells; test: MTT proliferation assay; format: cell-based, human; settings: with IL-13, peptide 1 μg/ml, 48 h
Experimental: as §1, §2

[4] = system: KM12SM cells; test: Metastasis experiment in nude mice, Kaplan-Meier survival after intrasplenic inoculation; format: in vivo, Swiss nude mice
Experimental: as §3
Binding of D1 peptide to IL-13 was monitored by surface plasmon resonance on a BIAcore 3000 instrument (BIAcore Inc, Switzerland). IL-13 was covalently amino coupled to a CM-5 sensor chip. An immobilization level of 7700 RU was obtained. A nonderivatized flow cell was used as a control. The interaction between D1 peptide and the immobilized IL13 was determined by changes in the RU at different D1 concentrations. Cell Signaling Analysis Cancer cells were incubated 3 h in DMEM without serum, detached with 2 mM EDTA, washed and treated with IL-13 (PeproTech) (10 ng/ml) for different times in presence or absence of IL13Rα2D1 peptide. Then, cells were lysed with lysis buffer (1% Igepal, 50 mM Tris-HCl, 100 mM NaCl, 2 mM MgCl2, 10% glycerol, protease inhibitors (Complete Mini, Roche) and phosphatase inhibitor cocktails 2 and 3 (Sigma-Aldrich)). Protein extracts (60 μg) were separated in SDS-PAGE and transferred to nitrocellulose membranes, which were incubated with primary antibodies, washed and incubated with HRP-conjugated secondary antibodies (Sigma-Aldrich). […] Proliferation Assays Cancer cells were seeded at 1×10^4 cells/well on 96-well plates and were incubated for 48 h at 37° C. in DMEM with 0.5% serum in presence of IL-13 (10 ng/ml) and the indicated peptides, followed by 1 h incubation with Thyazolyl Blue Tretrazolium Bromide (MTT) (0.6 mg/mL) (Sigma-Aldrich). Cell proliferation was determined by absorbance at 560 nm and comparison with control cells collected ab initium. Cell Adhesion Assays Cancer cells were starved for 3 h, labeled with BCECF-AM (Molecular Probes), detached with EDTA/PBS and incubated in DMEM in the presence of IL-13 and the indicated peptides for 10 min at 37° C. Then, 6×10^4 cells in 100 μL were added to 96-well plates previously coated with Matrigel (0.4 μg/mm^2), and the plates were incubated for 25 min at 37° C. Subsequently, non-adhered cells were removed by three washes with DMEM. Bound cells were lysed with 1% SDS in PBS, and the extent of the adhesion was quantified using a fluorescence analyzer (POLARstar Galaxy, BMG Labtechnologies). Wound Healing Assays Cancer cells were cultured to confluence in Matrigel-coated plates (0.4 μg/mm^2), and a 1 mm-wide wound was done across the monolayer, which was incubated in serum-free medium alone or with IL-13 (10 ng/mL), in the presence or absence of the indicated peptides. Pictures were taken immediately and after 24 h culture at 37° C. after the injury. Effective migration speed was calculated from the distance covered by cells in 24 h in each side of the wound. Invasion Assays For Matrigel invasion assays, 6×10^4 cells were loaded onto […] pore-size filters coated with […] of Matrigel (1:3 dilution; BD Biosciences) in Transwell plates (Costar) in presence of the indicated peptides. The lower compartment of the invasion chamber was filled with IL-13 (10 ng/mL). After 48 h, non-invading cells were removed from the upper surface of the filter, and cells that migrated through the filter were fixed with 4% paraformaldehyde (Sigma-Aldrich), stained with crystal violet and counted under a microscope. […] Swiss nude mice (Charles River) (n=5 per condition) were inoculated in the spleen with 1.5×10^6 KM12SM cells in 0.1 mL PBS in presence or absence of the indicated peptides (1 μg/mL). A day after inoculation, mice were subjected to removal of the spleen. […]

[5] = system: KM12SM cells; test: Cell invasion assay through Matrigel; format: cell-based, human; settings: with IL-13, peptide 1 μg/ml, 48 h
Experimental: as §1, §2

GSETWKTIITKN (G[dS][dE][dT][dW][dK][dT][dI][dI][dT][dK][dN]) [D-D1 peptide]
Inhibition of IL-13-stimulated cell adhesion to Matrigel [1]: inhibit cell adhesion, invasion and proliferation | Tumour growth of U251 xenografts [2]: significant growth arrest accompanied by a regression in the tumour size | Inhibition of IL-13-stimulated cell proliferation (MTT) [3]: inhibit cell adhesion, invasion and proliferation | Mice surviving the experimental endpoint, without further treatment ([4]; KM12SM intrasplenic, cells with peptide 1 μg/ml only, n=5 per condition): one | Metastatic lesions in surviving mice, without further treatment ([4]; KM12SM intrasplenic, cells with peptide only): without lesions | Mice surviving the experimental endpoint, with peptide treatment ([4]; KM12SM intrasplenic, cells with peptide plus 7 i.v. doses of 3 μg, n=5 per condition): two | Metastatic lesions at necropsy in surviving mice, with peptide treatment ([4]; KM12SM intrasplenic, cells with peptide plus i.v. treatment): no metastatic lesions at the necropsy | Mouse survival, cells inoculated with peptide plus intravenous peptide treatment ([4]; KM12SM intrasplenic, peptide 1 μg/ml with the cells, then 7 i.v. doses of 3 μg over 2 weeks, n=5): remarkable increase in survival | Mouse survival, cells inoculated with peptide, without further treatment ([4]; KM12SM intrasplenic, peptide 1 μg/ml with the cells, n=5): significant increase | Change of survival of treated mice ([4]; KM12SM metastasis model, treated mice versus control): more than doubling the survival | Inhibition of IL-13-stimulated cell invasion through Matrigel [5]: inhibit cell adhesion, invasion and proliferation
